Test results taken from PMC8752738, “A propolis-derived small molecule ameliorates metabolic syndrome in obese mice by targeting the CREB/CRTC2 transcriptional complex” (Nature Communications, 2022).
Where “and” joins values, the source holds several entries; their conditions need not be identical. Equal values may be shown once.

Experiments:
[1] = biological target: T1, GST-CREB / HIS-CRTC2-S171A interaction (Homo sapiens, UniProt P16220); assay: In vitro pull-down with purified GST-CREB and HIS-CRTC2-S171A; type: biochemical; details: for Relative HIS/GST in GST-pull down fraction: Fig 2d replicates
T1 construct: made in house; host or cells: E. coli
T1 sequence (P16220 whole entry, stated change not applied): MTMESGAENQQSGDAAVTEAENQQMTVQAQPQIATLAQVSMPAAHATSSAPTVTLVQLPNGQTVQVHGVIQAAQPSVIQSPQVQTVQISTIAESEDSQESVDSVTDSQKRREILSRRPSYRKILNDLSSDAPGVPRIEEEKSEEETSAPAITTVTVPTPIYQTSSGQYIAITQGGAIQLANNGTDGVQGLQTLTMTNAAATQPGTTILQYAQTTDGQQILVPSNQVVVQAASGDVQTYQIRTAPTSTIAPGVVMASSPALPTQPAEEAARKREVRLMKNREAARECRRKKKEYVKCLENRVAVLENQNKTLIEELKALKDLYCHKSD
Description: To further confirm whether APC disrupts the protein association between CREB and CRTC2, we performed GST-pull-down assays in which GST-CREB beads were used to immunoprecipitated FLAG-tagged CRTC2 proteins that were expressed in HEK293T cells. As expected, APC attenuated the amounts of FLAG-CRTC2 proteins recovered by GST-CREB beads from HEK293T cell lysates (Fig. 2a). […] In contrast, APC had little effect on the association of GST-CREB with HA-P300 (Supplementary Fig. 2a), as well as the interaction between endogenous CRTC2 and CBP proteins (Fig. 2c). Moreover, the interactions of CREB and the isoforms CRTC1 and CRTC3 were also attenuated by APC in overexpression HEK293T cells (Supplementary Fig. 2b, c).
Fig. 2 APC blocks interaction between CREB and CRTC2. a Analysis of GST-CREB immunoprecipitated with overexpressed FLAG-CRTC2 from the lysates of HEK293T cells. APC (10 μM) was added to the culture media for 1 h and the following IP mixture. The relative gray density of FLAG in GST-pull-down fraction is shown as a bar graph (bottom). One of three independent experiments is presented (top, n = 3). Data are represented as mean ± SEM); P values were determined by one-way ANOVA followed Dunnett’s multiple comparisons test. b Analysis of HA-CRTC2 immunoprecipitated with endogenous CREB from primary hepatocyte lysates. APC (10 μM) was added to the culture media for 1-h before 30-min of stimulation with glucagon (Gluc, 100 nM) and the following IP mixture as indicated. Top panel presents one of three independent experiments, and the relative gray density of HA in CREB-IP-faction is shown as a bar graph (bottom, n = 3). Data are represented as mean ± SEM; P values were determined by one-way ANOVA followed Dunnett’s multiple comparisons test. c Immunoblotting analysis of endogenous CREB, CRTC2, and CBP interaction by an anti-CRTC2 antibody from the lysate of primary hepatocytes. APC (10 μM) was added to the culture media for 1-h before 30-min stimulation with glucagon. Related CREB and CBP normalized by CRTC2, respectively, in CRTC2-IP fractions. The top panel presents one of three independent experiments, and the relative gray density of CREB and CBP normalized to CRTC2 in the CRTC2-IP-faction is shown as a bar graph (bottom, n = 3). Data are represented as mean ± SEM; P values were determined by two-way ANOVA followed Bonferroni’s multiple comparisons test. d Immunoblotting analysis of protein GST-CREB recovered HIS-CRTC2-S171A proteins purified from E. coli. The addition of APC (5, 10, or 50 μM) in pull-down mixtures is indicated. […] Data are represented as mean ± SEM; P values were determined by one-way ANOVA followed Dunnett’s multiple comparisons test (compared with APC = 0).

LXRα = assay: Immunoblot of LXRα in insulin-stimulated primary hepatocytes; type: cell-based, mouse; details: for relative LXRa protein: individual replicates, Supp. Fig.6 b; for relative LXRa protein, mean: N=3
Description: 3 Supplementary Figure 6. APC inhibited transcription induced by half-CRE in the promoters of
5 a) Immunoblot of LXRa protein levels in primary hepatocytes stimulated with insulin (100 nM) for
6 indicated times (0–18 h). One presentative result from three experiments is shown here. Relative
7 LXRa protein level normalized to GAPDH shown as a bar graph (b). Data are represented as
8 mean ± SEM (n=3 per treatment). *, p < 0.05; **, p < 0.01; p values were determined by two-way […]
(1 picture or pasted object on this page, not shown here)

`CC(C)=CCc1cc(C=CC(=O)O)cc(CC=C(C)C)c1O` [APC, 3,5-diprenyl-4-hydroxycinnamic acid] was tested, and the “Relative HIS/GST in GST-pull down fraction” value ([1]; APC 5 uM) was 0.8055 and 0.8618 and 0.7881, the “Relative HIS/GST in GST-pull down fraction” value ([1]; APC 10 uM) was 0.4842 and 0.3120 and 0.3223 and the “Relative HIS/GST in GST-pull down fraction” value ([1]; APC 50 uM) was 0.1707 and 0.1125 and 0.1021. The “HIS-CRTC2-S171A recovered by GST-CREB” value ([1]; purified proteins, APC 5, 10, 50 μM, dose-dependent) was “significantly diminished”, the “relative LXRa protein” value (LXRα; Insulin 0h) was 101.09 and 100.00 and 97.00 and the “relative LXRa protein, mean” value (LXRα; Insulin 0h) was 99.36. The “relative LXRa protein” value (LXRα; Insulin 3h) was 65.50 and 69.00 and 75.00, the “relative LXRa protein, mean” value (LXRα; Insulin 3h) was 69.83 and the “relative LXRa protein, Mean Diff. 3h vs. 0h” value (LXRα; Insulin 3h minus 0h, within APC group) was -29.53. The “relative LXRa protein” value (LXRα; Insulin 18h) was 33.42 and 31.00 and 29.00, the “relative LXRa protein, mean” value (LXRα; Insulin 18h) was 31.14 and the “relative LXRa protein, Mean Diff. 18h vs. 0h” value (LXRα; Insulin 18h minus 0h, within APC group) was -68.22. The LXRα protein levels (LXRα; primary hepatocytes, insulin treatment 18-h) was “significantly reduced”.
